Measured values from US20240150377A1, “MODULATORS OF CYSTIC FIBROSIS TRANSMEMBRANE CONDUCTANCE REGULATOR” (VERTEX PHARMACEUTICALS INCORPORATED, priority 2020, published 2024).

Target: T1, CFTR (Homo sapiens, UniProt P13569, DEL508-508)
T1 construct: endogenous in cells; host or cells: primary human bronchial epithelial cells from CF subjects (F508del/MF-HBE), differentiated at air-liquid interface
Test: HBE2 assay: Ussing chamber assay of CFTR-mediated short-circuit currents
Format: cell-based
Conditions: F508del/MF-HBE cells, with 44 nM potentiator, 18-24 hours, 20% human serum
Protocol: Ussing Chamber Assay of CFTR-Mediated Short-Circuit Currents
After four days the apical media was removed, and the cells were grown at an air liquid interface for >14 days prior to use.
To isolate the CFTR-mediated short-circuit (ISC) current, F508del/MF-HBE grown on Costar® Snapwell™ cell culture inserts were mounted in an Ussing chamber and the transepithelial ISC was measured under voltage-clamp recording conditions (Vhold=0 mV) at 37° C. […] The CFTR-mediated ISC (μA/cm^2) for each condition was determined from the peak forskolin response to the steady-state current following inhibition.
Identification of Corrector Compounds
The activity of the CFTR corrector compounds on the CFTR-mediated ISC was determined in Ussing chamber studies as described above.

T1 sequence (P13569 with tags, fused parts or gaps DEL508-508): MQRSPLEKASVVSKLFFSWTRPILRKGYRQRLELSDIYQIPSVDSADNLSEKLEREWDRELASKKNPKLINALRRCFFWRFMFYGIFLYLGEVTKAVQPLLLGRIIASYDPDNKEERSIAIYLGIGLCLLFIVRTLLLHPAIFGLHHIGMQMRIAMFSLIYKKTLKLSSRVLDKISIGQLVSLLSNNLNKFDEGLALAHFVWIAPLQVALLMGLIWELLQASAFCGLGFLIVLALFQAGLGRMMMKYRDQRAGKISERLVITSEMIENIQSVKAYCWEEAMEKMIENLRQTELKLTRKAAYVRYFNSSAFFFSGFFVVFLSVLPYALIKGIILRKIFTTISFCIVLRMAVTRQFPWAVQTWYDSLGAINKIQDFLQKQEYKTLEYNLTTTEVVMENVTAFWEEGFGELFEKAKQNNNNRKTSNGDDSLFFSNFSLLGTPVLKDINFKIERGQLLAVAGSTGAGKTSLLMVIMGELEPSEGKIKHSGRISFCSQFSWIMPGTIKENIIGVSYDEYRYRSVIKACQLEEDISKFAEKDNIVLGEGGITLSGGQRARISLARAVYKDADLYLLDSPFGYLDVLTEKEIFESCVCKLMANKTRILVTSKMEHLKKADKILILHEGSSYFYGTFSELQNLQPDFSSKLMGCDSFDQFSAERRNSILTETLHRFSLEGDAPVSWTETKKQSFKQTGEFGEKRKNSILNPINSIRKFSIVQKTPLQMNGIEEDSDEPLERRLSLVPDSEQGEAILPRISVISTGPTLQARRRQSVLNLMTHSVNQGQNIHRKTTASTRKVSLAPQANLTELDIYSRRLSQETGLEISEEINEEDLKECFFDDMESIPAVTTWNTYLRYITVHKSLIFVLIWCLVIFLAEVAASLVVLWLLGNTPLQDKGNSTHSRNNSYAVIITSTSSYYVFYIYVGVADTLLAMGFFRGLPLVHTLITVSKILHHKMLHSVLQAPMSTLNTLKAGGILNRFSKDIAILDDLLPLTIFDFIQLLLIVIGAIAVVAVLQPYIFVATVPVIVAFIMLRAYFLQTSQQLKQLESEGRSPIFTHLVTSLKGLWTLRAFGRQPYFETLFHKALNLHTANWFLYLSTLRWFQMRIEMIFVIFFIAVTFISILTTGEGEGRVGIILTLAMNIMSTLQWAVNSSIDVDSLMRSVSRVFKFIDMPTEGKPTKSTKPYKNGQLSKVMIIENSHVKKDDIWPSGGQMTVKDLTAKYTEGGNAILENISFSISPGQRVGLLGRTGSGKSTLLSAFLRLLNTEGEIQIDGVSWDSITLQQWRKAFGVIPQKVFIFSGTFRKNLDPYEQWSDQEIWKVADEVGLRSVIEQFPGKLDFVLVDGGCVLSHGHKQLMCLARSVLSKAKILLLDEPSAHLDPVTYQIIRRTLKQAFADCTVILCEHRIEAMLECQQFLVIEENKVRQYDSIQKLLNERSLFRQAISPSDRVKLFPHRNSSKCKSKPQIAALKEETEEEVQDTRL

HBE2 Activity at 3 μM (%) (3 μM)	HBE2 Activity at 3 μM (%) (3 μM corrector)	also measured	Compound
++ (++ is 30-60%)			Cc1cccc(C)c1-c1cc2nc(n1)NS(=O)(=O)c1cccc(c1)C(=O)N(Cc1cncc(N(C)C3CCC3)n1)[C@H](C1CC3(CCC3)C1)CO2 (single isomer, unassigned) [Compound 1321, 12-[[6-[cyclobutyl(methyl)amino]pyrazin-2-yl]methyl]-6-(2,6-dimethylphenyl)-2,2-dioxo-11-spiro[3.3]heptan-2-yl-9-oxa-2λ^6-thia-3,5,12,19-tetrazatricyclo[12.3.1.14,8]nonadeca-1(18),4(19),5,7,14,16-hexaen-13-one]
	+++ (+++ is >60+)		Cc1cccc(C)c1-c1cc2nc(n1)NS(=O)(=O)c1cccc(c1)C(=O)N(Cc1cncc(N(C)C3CCC3)n1)[C@]1(CCC(C)(C)C1)CO2 (single isomer, unassigned) [Compound 1325, 12-[[6-[cyclobutyl(methyl)amino]pyrazin-2-yl]methyl]-6-(2,6-dimethylphenyl)-1′,1′-dimethyl-2,2-dioxo-spiro[9-oxa-2λ^6-thia-3,5,12,19-tetrazatricyclo[12.3.1.14,8]nonadeca-1(18),4(19),5,7,14,16-hexaene-11,3′-cyclopentane]-13-one]
	+++ (+++ is >60+)		Cc1cccc(C)c1-c1cc2nc(n1)NS(=O)(=O)c1cccc(c1)C(=O)N(Cc1cncc(N(C)C3CCC3)n1)[C@]1(CCC(C)(C)C1)CO2 (single isomer, unassigned) [Compound 1326, 12-[[6-[cyclobutyl(methyl)amino]pyrazin-2-yl]methyl]-6-(2,6-dimethylphenyl)-1′,1′-dimethyl-2,2-dioxo-spiro[9-oxa-2λ^6-thia-3,5,12,19-tetrazatricyclo[12.3.1.14,8]nonadeca-1(18),4(19),5,7,14,16-hexaene-11,3′-cyclopentane]-13-one]
	+++ (+++ is >60+)		Cc1cccc(C)c1-c1cc2nc(n1)NS(=O)(=O)c1cccc(c1)C(=O)N(Cc1cncc(N3CCCC[C@H]3C)n1)[C@@H](CCC(C)(C)F)CO2 (single isomer, unassigned) [Compound 1327]
	++ (++ is 30-60%)		Cc1cccc(C)c1-c1cc2nc(n1)NS(=O)(=O)c1cccc(c1)C(=O)N(Cc1cncc(N3CCCC[C@H]3C)n1)[C@@H](CCC(C)(C)F)CO2 (single isomer, unassigned) [Compound 1328]
	+++ (+++ is >60+)		CCC(C)(C)C[C@@H]1COc2cc(-c3c(C)cccc3C)nc(n2)NS(=O)(=O)c2cccc(c2)C(=O)N1Cc1cncc(N(C)C2CCC2)n1 (single isomer, unassigned) [Compound 1330, 12-[[6-[cyclobutyl(methyl)amino]pyrazin-2-yl]methyl]-11-(2,2-dimethylbutyl)-6-(2,6-dimethylphenyl)-2,2-dioxo-9-oxa-2λ^6-thia-3,5,12,19-tetrazatricyclo[12.3.1.14,8]nonadeca-1(18),4,6,8(19),14,16-hexaen-13-one]
	++ (++ is 30-60%)		Cc1cccc(C)c1-c1cc2nc(n1)NS(=O)(=O)c1cccc(c1)C(=O)N(Cc1cncc(N3CCCC3C)n1)[C@H](C1CC(C)(C)C1)CO2 (single isomer, unassigned) [Compound 1337]
	+++ (+++ is >60+)		Cc1cccc(C)c1-c1cc2nc(n1)NS(=O)(=O)c1cccc(c1)C(=O)N(Cc1cncc(N3CCCC3C)n1)[C@H](C1CC(C)(C)C1)CO2 (single isomer, unassigned) [Compound 1338]
	+++ (+++ is >60+)		Cc1cccc(C)c1-c1cc2nc(n1)NS(=O)(=O)c1cccc(c1)C(=O)N(Cc1cncc(N(C)C3CCC3)n1)[C@H](CC1CC(C)(C)C1)CO2 (single isomer, unassigned) [Compound 1339, 12-[[6-[Cyclobutyl(methyl)amino]pyrazin-2-yl]methyl]-11-[(3,3-dimethylcyclobutyl)methyl]-6-(2,6-dimethylphenyl)-2,2-dioxo-9-oxa-2λ^6-thia-3,5,12,19-tetrazatricyclo[12.3.1.14,8]nonadeca-1(18),4(19),5,7,14,16-hexaen-13-one]
	++ (++ is 30-60%)		Cc1cccc(C)c1-c1cc2nc(n1)NS(=O)(=O)c1cccc(c1)C(=O)N(Cc1cncc(N(C)C3CCC3)n1)[C@H](CC1CC(C)(C)C1)CO2 (stereo in doubt) [Compound 1340, 12-[[6-[cyclobutyl(methyl)amino]pyrazin-2-yl]methyl]-11-[(3,3-dimethylcyclobutyl)methyl]-6-(2,6-dimethylphenyl)-2,2-dioxo-9-oxa-2λ^6-thia-3,5,12,19-tetrazatricyclo[12.3.1.14,8]nonadeca-1(18),4(19),5,7,14,16-hexaen-13-one]
+++ (+++ is >60+)			Cc1cccc(C)c1-c1cc2nc(n1)NS(=O)(=O)c1cccc(c1)C(=O)N(Cc1ccn([C@H](C)C3CCOCC3)n1)[C@H](CC(C)(C)C)CO2 (stereo in doubt) [Compound 1456]
+ (+ is <300))			Cc1cccc(C)c1-c1cc2nc(n1)NS(=O)(=O)c1cccc(c1)C(=O)N(Cc1ncc(OC(C)C)cn1)[C@H](C(C)C1CC1)CO2 (stereo in doubt) [Compound 1557]
+++ (+++ is >60+)			Cc1cccc(C)c1-c1cc2nc(n1)NS(=O)(=O)c1cccc(c1)C(=O)N(Cc1ncc(OC(C)C)cn1)[C@H]([C@H](C)C1CC1)CO2 (stereo in doubt) [Compound 1558]
+++ (+++ is >60+)			Cc1cccc(C)c1-c1cc2nc(n1)NS(=O)(=O)c1cccc(c1)C(=O)N(Cc1ncc(OC(C)C)cn1)[C@H]([C@@H](C)C1CC1)CO2 (stereo in doubt) [Compound 1559]
+ (+ is <300))			Cc1cccc(C)c1-c1cc2nc(n1)NS(=O)(=O)c1cccc(c1)C(=O)N(Cc1ncc(OC(C)C)cn1)[C@H]([C@@H](C)C(C)C)CO2 (stereo in doubt) [Compound 1570]
+ (+ is <300))			Cc1cccc(C)c1-c1cc2nc(n1)NS(=O)(=O)c1cccc(c1)C(=O)N(Cc1ncc(OC(C)C)cn1)[C@H]([C@@H](C)C(C)C)CO2 (stereo in doubt) [Compound 1571]
+++ (+++ is >60+)			Cc1cccc(C)c1-c1cc2nc(n1)NS(=O)(=O)c1cccc(c1)C(=O)N(Cc1ncc(OC(C)C)cn1)[C@H]([C@@H](C)C(C)C)CO2 (stereo in doubt) [Compound 1572]
+++ (+++ is >60+)			Cc1cccc(C)c1-c1cc2nc(n1)NS(=O)(=O)c1cccc(c1)C(=O)N(Cc1ncc(OC(C)C)cn1)[C@H]([C@@H](C)C(C)C)CO2 (stereo in doubt) [Compound 1573]
+++ (+++ is >60+)			Cc1cccc(C)c1-c1cc2nc(n1)NS(=O)(=O)c1cccc(c1)C(=O)N(Cc1cccc(N3CCC[C@@]3(C)CO)n1)[C@H](CC(C)(C)C)CO2 (stereo in doubt) [Compound 1585]
+++ (+++ is >60+)			CO[C@@H]1CC[C@@H]1N(C)c1cncc(CN2C(=O)c3cccc(c3)S(=O)(=O)Nc3nc(cc(-c4c(C)cccc4C)n3)OC[C@H]2CC(C)(C)C)n1 (stereo in doubt) [Compound 1607]
		EC50: < 1000 nM; Emax (read-out: HBE2 Max activity (%)): > 60%	CO[C@@H]1CC[C@@H]1N(C)c1cncc(CN2C(=O)c3cccc(c3)S(=O)(=O)Nc3nc(cc(-c4c(C)cccc4C)n3)OC[C@H]2CC(C)(C)C)n1 (stereo in doubt) [Compound 1610]
++ (++ is 30-60%)			Cc1cccc(C)c1-c1cc2nc(n1)NS(=O)(=O)c1cccc(c1)C(=O)N(Cc1cncc(N3CCC4NC(=O)CC43)n1)[C@H](CC(C)(C)C)CO2 (stereo in doubt) [Compound 1621]
